Assay results: paper PMC5727045, “Anti-biofilm Properties of Bacterial Di-Rhamnolipids and Their Semi-Synthetic Amide Derivatives” (Frontiers in Microbiology, 2017)
≈ marks a conversion by molar mass, not a printed value. Entries after “also recorded” stand apart in the source; their conditions may differ.

What was measured:
P. aeruginosa DM50 [1] = experiment: MIC, broth microdilution, planktonic cells; type: cell-based; settings: Pseudomonas aeruginosa; P. aeruginosa DM50, 24 h incubation
Source text: (§1) Test organisms for the antibacterial assays were obtained from the National Collection of Type Cultures (NCTC) and the American Type Culture Collection (ATCC). P. aeruginosa PAO1 NCTC 10332, S. aureus ATCC 25923 and S. aureus ATCC 43300 (MRSA) and S. marcescens ATCC 27117 were used in this study. One clinical isolate of P. aeruginosa DM50 with high ability to form biofilms and resistance to metronidazole, clindamycin and amoxicillin was also included ([Glisic et al., 2016]). Bacterial strains were grown in Luria Bertani (LB) broth at 37°C on a rotary shaker at 180 rpm.
(§2) The minimum inhibitory concentration (MIC) of rhamnolipids and their derivatives were determined according to standard broth microdilution assays recommended by the National Committee for Clinical Laboratory Standards (M07-A8).
(§3) Stock solutions of rhamnolipids and derivatives were prepared in DMSO (50 g L^-1, w/v). The highest concentration used was 500 mg L^-1. The inoculums were 10^5 colony forming units (cfu) mL^-1.

P. aeruginosa PAO1 [2] = experiment: MIC, broth microdilution, planktonic cells; type: cell-based; settings: Pseudomonas aeruginosa; P. aeruginosa PAO1, 24 h incubation
Source text: as §1, §2, §3

S. aureus ATCC 25923 [3] = experiment: MIC, broth microdilution, planktonic cells; type: cell-based; settings: Staphylococcus aureus, ATCC25923, 24 h, S. aureus ATCC 25923, 24 h incubation
Source text: as §1, §2, §3

S. aureus MRSA [4] = experiment: MIC, broth microdilution, planktonic cells; type: cell-based; settings: Staphylococcus aureus, 24 h, 24 h incubation
Source text: as §1, §2, §3

S. marcescens ATCC 27117 [5] = experiment: MIC, broth microdilution, planktonic cells; type: cell-based; settings: Serratia marcescens, ATCC27117; S. marcescens ATCC 27117, 24 h incubation
Source text: as §1, §2, §3

P. aeruginosa PAO1 [6] = experiment: Inhibition of biofilm formation, crystal violet; type: cell-based, Pseudomonas aeruginosa; settings: for Biofilm formation (%): P. aeruginosa PAO1, 50 μg mL^-1
Source text: as §1
(§4) Biofilm quantification assays were performed in 96-well microtiter plates using a crystal violet (CV) method to stain adherent cells ([Merritt et al., 2005]). Overnight cultures of bacteria were diluted to 5 × 10^7 cfu mL^-1 in LB and 100 μL was added to the wells in the presence of test compounds or DMSO (0.1%, v/v). Biofilms formed for 24 h at 37°C for P. aeruginosa and S. aureus, or 30°C for S. marcescens were washed and adherent cells stained with CV 0.1% (v/v). BFIC50 (concentration of compound that inhibited biofilm formation by 50%) was determined for each compound.
The effect of rhamnolipids on P. aeruginosa biofilm formation was examined additionally by introducing 3 h adhesion phase after inoculation with 5 × 10^7 cfu mL^-1 cells. Following adhesion, the supernatant was removed and, after two washing steps with phosphate buffered saline (PBS), test compounds or DMSO were applied and the biofilms were quantified after 24 h using CV. Each biofilm formation assay was performed in six wells and repeated at least three times.

P. aeruginosa DM50 [7] = experiment: Inhibition of biofilm formation, crystal violet; type: cell-based, Pseudomonas aeruginosa; settings: P. aeruginosa DM50, 50 μg mL^-1
Source text: as §1, §4

S. aureus ATCC 25923 [8] = experiment: Inhibition of biofilm formation, crystal violet; type: cell-based, Staphylococcus aureus; settings: S. aureus ATCC 25923, 50 μg mL^-1
Source text: as §1, §4

S. aureus MRSA [9] = experiment: Inhibition of biofilm formation, crystal violet; type: cell-based, Staphylococcus aureus
Source text: as §1, §4

S. marcescens ATCC 27117 [10] = experiment: Inhibition of biofilm formation, crystal violet; type: cell-based, Serratia marcescens; settings: S. marcescens ATCC 27117, 50 μg mL^-1
Source text: as §1, §4

P. aeruginosa DM50 [11] = experiment: Biofilm dispersion assay, crystal violet; type: cell-based, Pseudomonas aeruginosa; settings: P. aeruginosa DM50, 50 μg mL^-1
Source text: as §1
(§5) An overnight culture of P. aeruginosa was diluted to 5 × 10^7 cfu mL^-1 in LB and 100 μL was added to the wells in 96-well microtiter plates and incubated for 24 h at 37°C. After removal of the supernatant and two washing steps with PBS adherent cells were treated with different concentrations of rhamnolipids or derivatives for additional 24 h and the biofilms were quantified using CV as described above. Biofilm dispersion assays were performed in six wells and repeated three times.

P. aeruginosa PAO1 [12] = experiment: Biofilm dispersion assay, crystal violet; type: cell-based, Pseudomonas aeruginosa; settings: for Biofilm biomass (%) remained after biofilm dispersion: P. aeruginosa PAO1, 50 μg mL^-1
Source text: as §1, §5

S. aureus ATCC 25923 [13] = experiment: Biofilm dispersion assay, crystal violet; type: cell-based, Staphylococcus aureus; settings: S. aureus ATCC 25923, 50 μg mL^-1
S. aureus MRSA [14] = experiment: Biofilm dispersion assay, crystal violet; type: cell-based, Staphylococcus aureus
S. marcescens ATCC 27117 [15] = experiment: Biofilm dispersion assay, crystal violet; type: cell-based, Serratia marcescens; settings: S. marcescens ATCC 27117, 50 μg mL^-1
Source text: as §1, §5

[16] = tested on: MRC5 human lung fibroblasts; experiment: Cytotoxicity assay, MTT; type: cell-based; settings: concentrations up to 100 μg mL^-1, MTT, 48 h
Procedure: MRC5 human lung fibroblasts were obtained from the ATCC. Cells were maintained as monolayer cultures in RPMI-1640 supplemented with 100 mg L^-1 streptomycin, 100 U mL^-1 penicillin and 10% (v/v) FBS (all from Sigma, Munich, Germany). Cells were grown in a humidified atmosphere of 95% air and 5% CO2 at 37°C.
Cytotoxicity on MRC5 cells was evaluated with 3-(4,5-dimethylthiazol-2-yl)-2,5-diphenyltetrazolium bromide (MTT). The assay was carried out after 48 h of cell incubation in the media containing test compounds at different concentrations and the viability was measured as described ([Mihajlovic et al., 2012]). The results are presented as the percentage of the control (untreated cells) that was arbitrarily set to 100%.

P. aeruginosa PAO1-GFP = experiment: Anti-adhesion assay, GFP fluorescence; type: cell-based, Pseudomonas aeruginosa; settings: 2 h
Procedure: Anti-adhesion assay was performed as previously described ([Shetye et al., 2014]) with some modifications. An overnight culture of P. aeruginosa PAO1 containing pBBR2-GFP ([da Silva et al., 2014]) was subcultured (initial OD600 = 0.02) in M9+/LB (95:5) containing gentamycin (80 mg L^-1), tetracycline (20 mg L^-1), and chloramphenicol (50 mg L^-1) at 37°C in a rotary shaker (200 rpm). After reaching OD600 = 0.1, aliquots (200 μL) were transferred to the wells of black polystyrene microtiter plate with rhamnolipids, derivatives or DMSO (control). After incubation at 37°C for 2 h, bacterial cultures were discarded, and the fluorescence of adherent cells was measured after addition of fresh M9+/LB (95:5) medium using Tecan Infinite 200 Microplate reader (Tecan Group Ltd., Switzerland, lex = 500 nm, lem = 540 nm). Background signal (M9+/LB (95:5) was subtracted from all the samples. Assays were repeated three times; inhibition values are the averages of six replicate wells from one experiment.

[17] = listed as Rha-TBDMS (Lysinibacillus sp. BV152.1)
[18] = 50 μg mL^-1, listed as Rha-TBDMS (Lysinibacillus sp. BV152.1)

SMILES | MIC (P. aeruginosa DM50 [1]) [µg/mL] | MIC (P. aeruginosa PAO1 [2]) [µg/mL] | MIC (S. aureus ATCC 25923 [3]) [µg/mL] | MIC (S. aureus MRSA [4]) [µg/mL] | MIC (S. marcescens ATCC 27117 [5]) [µg/mL] | Biofilm formation (%) (P. aeruginosa PAO1 [6]) | Biofilm formation (%) (P. aeruginosa DM50 [7]) | Biofilm formation (%) (S. aureus ATCC 25923 [8]) | Biofilm formation (%) (S. aureus MRSA [9]; 50 μg mL^-1) | Biofilm formation (%) (S. marcescens ATCC 27117 [10]) | Biofilm biomass (%) remained after biofilm dispersion (P. aeruginosa DM50 [11]) [%] | Biofilm biomass (%) remained after biofilm dispersion (P. aeruginosa PAO1 [12]) [%] | Biofilm biomass (%) remained after biofilm dispersion (S. aureus ATCC 25923 [13]) [%] | Biofilm biomass (%) remained after biofilm dispersion (S. aureus MRSA [14]; 50 μg mL^-1) [%] | Biofilm biomass (%) remained after biofilm dispersion (S. marcescens ATCC 27117 [15]) [%] | Viability of human lung fibroblasts (MRC5) [16] | also measured
CCCCCCCC(CC(=O)O)OC(=O)CC(CCCCCCC)O[C@@H]1O[C@@H](C)[C@H](O)[C@@H](O)[C@H]1O[C@@H]1O[C@@H](C)[C@H](O)[C@@H](O)[C@H]1O (stereo partly drawn) [di-Rha, Rha-Rha-C10-C10] | > 500 | > 500 | > 500 | > 500 | > 500 | 50 ± 3 | 109 ± 10 | 37 ± 4 | 44 ± 11 | 20 ± 5 | 135 ± 10 | 77 ± 3 | 80 ± 9 | 82 ± 7 | 193 ± 8 | not affected; also recorded: not toxic | effect on biofilm formation when bacteria were left to attach prior to treatment (P. aeruginosa PAO1 [6]; P. aeruginosa PAO1, concentrations up to 50 μg mL^-1): stimulated biofilm formation; IC50 (P. aeruginosa PAO1 [6]; Pseudomonas aeruginosa, P. aeruginosa PAO1, 24 h, read-out: BFIC50 (concentration of compound that inhibited biofilm formation by 50%)): 75 µg/mL (≈ 115 µM); disruption of pre-formed biofilms (P. aeruginosa PAO1 [12]; 24 h old P. aeruginosa biofilms, 100 μg mL^-1): up to 20%
CCCCCCCC(CC(=O)O)OC(=O)CC(CCCCCCC)O[C@@H]1O[C@@H](C)[C@H](O[Si](C)(C)C(C)(C)C)[C@@H](O[Si](C)(C)C(C)(C)C)[C@H]1O[C@@H]1O[C@@H](C)[C@H](O[Si](C)(C)C(C)(C)C)[C@@H](O[Si](C)(C)C(C)(C)C)[C@H]1O[Si](C)(C)C(C)(C)C (some centres unmarked) | – | – | – | – | – | – | – | – | – | – | – | – | – | – | – | – | anti-biofilm formation activity (P. aeruginosa PAO1 [6]; P. aeruginosa PAO1): no anti-biofilm formation activity; Biofilm formation (%) (P. aeruginosa PAO1 [6]; [17]): 115 ± 10%; Biofilm formation (%) (P. aeruginosa DM50 [7]; [17]): 100 ± 8%; Biofilm formation (%) (S. aureus ATCC 25923 [8]; [17]): 88 ± 12%; Biofilm formation (%) (S. aureus MRSA [9]; [18]): 106 ± 4%; Biofilm formation (%) (S. marcescens ATCC 27117 [10]; [17]): 85 ± 1%; Biofilm biomass (%) remained after biofilm dispersion (P. aeruginosa DM50 [11]; [17]): 65 ± 1%; Biofilm biomass (%) remained after biofilm dispersion (P. aeruginosa PAO1 [12]; [17]): 80 ± 6%; Biofilm biomass (%) remained after biofilm dispersion (S. aureus ATCC 25923 [13]; [17]): 110 ± 22%; Biofilm biomass (%) remained after biofilm dispersion (S. aureus MRSA [14]; [18]): 101 ± 14%; Biofilm biomass (%) remained after biofilm dispersion (S. marcescens ATCC 27117 [15]; [17]): 99 ± 8%
CCCCCCCC(CC(=O)O)OC(=O)CC(CCCCCCC)O[C@@H]1O[C@@H](C)[C@H](O[Si](C)(C)C(C)(C)C)[C@@H](O[Si](C)(C)C(C)(C)C)[C@H]1O[C@@H]1O[C@@H](C)[C@H](O[Si](C)(C)C(C)(C)C)[C@@H](O[Si](C)(C)C(C)(C)C)[C@H]1O[Si](C)(C)C(C)(C)C (some centres unmarked) [di-Rha-TBDMS (P. aeruginosa)] | > 500 | > 500 | > 500 | > 500 | > 500 | 95 ± 7 | 73 ± 6 | 88 ± 10 | 69 ± 11 | 117 ± 4 | 78 ± 10 | 76 ± 10 | 82 ± 3 | 120 ± 10 | 155 ± 3 | not affected | anti-adhesion activity (P. aeruginosa PAO1-GFP): no significant anti-adhesion activity
